Experimental data: patent publication US20110033904A1, “METHOD FOR PREPARING ORTHODIHYDROXYISOFLAVONES USING A BIOTRANSFORMATION SYSTEM” (priority 2008, published 2011)

System: C57BL/6 mouse melanocyte cells (MeI-Ab cells)
Experiment: Melanin production inhibitory effects using MeI-Ab cells (Dooley's method)
Assay type: cell-based
Details: substances added during 3 days from day 2 of culture, absorbance at 400 nm, hydroquinone 100 ppm
Procedure: The melanin production inhibitory effects of the ODIs obtained in Examples 1 and 2 were measured using MeI-Ab cells.
First, C57BL/6 mouse melanocyte cells (MeI-Ab cells) (Dooley, T. P. et al, Skin pharmacol, 7, pp 188-200) were cultured in a DMEM (Dulbeccos modified Eagles media) medium containing 10% fetal bovine serum, 100 nM 2-O-tetradecanoylphorbol-13-acetate and 1 nM cholera toxin in conditions of 37° C. and 5% CO2. The cultured MeI-Ab cells were detached by 0.25% trypsin-EDTA and cultured in a 24-well plate at a concentration of 10^5 cells/well. During the culture period, 100 ppm hydroquinone and each of the ODIs obtained in Examples 1 and 2 were added to the cells continuously during 3 days from 2 days after the start of the culture. Herein, the hydroquinone was used as a positive control group. The culture broth was collected and washed, and the cells were lysed with 1N sodium hydroxide and measured for absorbance at 400 nm.
Melanin production inhibition (%)=100−(absorbance of each test substance/absorbance of control group×100) [Math Figure 1]

SMILES	inhibition at 100 ppm (Mus musculus, Melanocyte)	Melanin production inhibition (%)
Oc1ccc(O)cc1 [Hydroquinone, hydroquinone, reference compound]	41.1%	–
O=c1c(-c2ccc(O)cc2)coc2cc(O)c(O)cc12 [7,6,4′-trihydroxyisoflavone]	–	38.8%
O=c1c(-c2ccc(O)c(O)c2)coc2cc(O)cc(O)c12 [7,5,3′,4′-tetrahydroxyisoflavone]	–	40.8%
O=c1c(-c2ccc(O)cc2)coc2c(O)c(O)ccc12 [7,8,4′-trihydroxyisoflavone]	–	39.8%
O=c1c(-c2ccc(O)c(O)c2)coc2cc(O)ccc12 [7,3′,4′-trihydroxyisoflavone]	–	38.7%
